Results: patent US20130202586A1, “STEM CELL THERAPY USING INHIBITORS OF LYSOPHOSPHATIDIC ACID” (priority 2011, published 2013)

Legend:
[1] = system: noggin-treated cells (human NSC); test: Neurosphere formation from noggin-treated human embryonic stem cells; assay type: cell-based; details: 5-7 days
Experimental: (§1) Neurospheres were formed and cultured as described in Dottori, M. et al. (2008), supra. Briefly, human embryonic stem cells (HES-2, HES-3, and HES-4, WiCell Research Institute, Madison Wis.) were cultured according to previously published methods. Neuronal induction using noggin was performed according to published methods and after growth and subculture, cells were grown as neurospheres in the presence of growth factors. Neurospheres could be plated on dishes coated with laminin or fibronectin. When plated onto laminin and cultured with neural basal medium (NBM, R&D Systems, Minneapolis Minn.), neurospheres typically differentiate into neurons. Quantitation of neuron-forming spheres (a measure of neuronal differentiation) was done by counting the number of neurospheres from which neuronal outgrowth was visible.
Plated neurospheres were incubated in the presence or absence of LPA (Sigma Aldrich, St. Louis, Mo.) and/or antibody (concentrations shown) for 5 days. Dilutions of LPA were made in 0.1% fatty acid-free bovine serum albumin (final concentration 0.01% BSA).
As shown by Dottori et al., LPA inhibits the ability of NSC to form neurospheres, even in the presence of bFGF and EGF. […] […] Dottori, M. et al. (2008), supra. […]

[2] = system: plated neurospheres (human NSC); details: 10 μM LPA, Dottori et al.; cited from earlier work
adult mouse NSC = test: Neuronal differentiation of adult mouse NSC; assay type: cell-based
Text: However, and similarly to data obtained in human NSC, LPA inhibited the neuronal differentiation of adult mouse NSC by maintaining them as NSC when plated in conditions normally inducing neuronal differentiation. […] These effects were independent of apoptosis or proliferation.

[3] = system: noggin-treated cells (human NSC); details: 10 μM LPA, 11-14 days, Dottori et al.; cited from earlier work
[4] = system: plated neurospheres (human NSC); test: Neuronal differentiation: neuron-forming neurospheres; assay type: cell-based
Experimental: as §1
[…] […] Dilutions of LPA were made in 0.1% fatty acid-free bovine serum albumin (final concentration 0.01% BSA).
The effect of LPA on an additional differentiation step, the differentiation of NSC toward mature cells, was also measured. When plated on laminin in NBM, neurospheres typically differentiate into neurons, as assayed by visible neurons, elongated cell shape and/or positive staining for β-tubulin.
Using the same conditions used in Example 2 for LPA treatment alone, plated neurospheres were treated with 10 μM LPA alone, or with anti-LPA antibody B3 or B7 (1 mg/ml) alone, or with 10 μM LPA in combination with 1 mg/ml of antibody B3 or B7. Similarly, cells were treated with 10 μM LPA alone, humanized anti-LPA antibody LT3015 alone (1 mg/ml) or with 10 μM LPA in combination with 1 mg/ml LT3015. The percent of neuron-forming neurospheres was quantitated as in Example 2 (beta-tubulin staining and quantification of neuron-forming spheres, as described in Dottori, et al (2008)). […] Neurosphere samples treated with B3 antibody alone had neuron-forming neurospheres equivalent to control (100%). […] The antibody B7, under similar conditions, had little to no effect in this experiment (37.00±5.31% of control). […]

lysophosphatidic acid [LPA]
% neurosphere formation ([1]; 10 μM LPA): 13.500±5.590%
% neurosphere formation ([1]; LPA at 1 μM): 50±12.50%
neuronal cells from plated neurospheres [2]: did not give rise to neuronal cells
neurosphere formation or growth of mouse NSC (adult mouse NSC): did not modify neurosphere formation or growth
nestin positive, % of total cells (adult mouse NSC; LPA 10 μM, three days): 87.55±3.20%
βIII-tubulin expression, % of total cells (adult mouse NSC; LPA 10 μM, three days): 26.25±2.08%
% of cultures formed neurospheres [3]: 13.47%±6.94
neuron-forming neurospheres, % of untreated control ([4]; Example 4, 10 μM LPA alone): approximately 25.00±6.45%
neuron-forming spheres, % of control ([4]; Example 5, 3 days, 10 μM LPA alone): approximately 26%
neuron-forming neurospheres, pool of data ([4]; LPA alone): 25.00±6.45%
